{"source": "patent US20150018403A1", "about": "“FLUORENE-AMIDE COMPOUNDS AND PHARMACEUTICAL USE THEREOF” (JAPAN TOBACCO INC., priority 2013, published 2015)", "test_system": "tissue PDH activity", "assay": "Ex vivo PDH activation assay (liver and epididymal adipose tissue mitochondrial fractions after oral dosing)", "assay_type": "in vivo, Sprague-Dawley rats", "settings": "3 mg/kg, rat", "method": "The action of test compound on tissue PDH activity was evaluated. NADH production was detected via p-iodonitrotetrazolium violet (INT)-coupled system to measure PDH activity.\nNormal male Sprague-Dawley rats were randomly allocated m to the vehicle group and the test compound groups. The vehicle (0.5% aqueous methylcellulose solution, 5 mL/kg) or the test compound was orally administered to the rats. At 5 or 20 hr after administration, the rats were anesthetized with an intraperitoneal injection of sodium pentobarbital (60 mg/kg), and liver slices and epididymal adipose tissues were collected.\nTo the liver slices were rapidly added 9 volumes of ice-cold homogenization buffer (0.25 mol/L sucrose, 5 mmol/L tris(hydroxymethyl)aminomethane hydrochloride (pH 7.5), 2 mmol/L EDTA), and the mixtures were homogenized using a Polytron homogenizer. The homogenates were centrifuged at 600×g, 4° C. for 10 min to obtain the supernatant. The supernatants (1 mL) were centrifuged at 16,000×g, 4° C. for 10 min to collect the precipitates. The precipitates were washed by resuspension in the homogenization buffer (1 mL) and centrifuged in the same manner. The precipitates were frozen with liquid nitrogen and stored at −80° C. as the liver mitochondrial fraction.\nTo the adipose tissues were rapidly added 3 volumes of an ice-cold homogenization buffer, and the mixtures were homogenized using a Polytron homogenizer. The homogenates were centrifuged at 600×g, 4° C. for 10 min to obtain the supernatant. The supernatants were centrifuged at 16,000×g, 4° C. for 10 min to collect the precipitates. The precipitates were washed by resuspension in the homogenization buffer (1 mL) and centrifuged in the same manner. The precipitates were frozen with liquid nitrogen and stored at −80° C. as the adipose tissue mitochondrial fraction.\nThe mitochondrial fractions were thawed and suspended with the sample buffer (0.25 mol/L sucrose, 20 mmol/L tris(hydroxymethyl)aminomethane hydrochloride (pH 7.5), 50 mmol/L potassium chloride, and 1 mL/L 4-(1,1,3,3-tetramethylbutyl)phenyl-polyethylene glycol (Triton X-100)). Active PDH activity (PDHa activity) and total PDH activity (PDHt activity) were measured to evaluate the PDH activity. For the measurement of the PDHt activity, equal amounts of the mitochondrial suspension and the activation buffer (0.25 mol/L sucrose, 20 mmol/L tris(hydroxymethyl)aminomethane hydrochloride (pH 7.5), 50 mmol/L potassium chloride, 1 mL/L Triton X-100, 4 mmol/L calcium chloride, 40 mmol/L magnesium chloride, 10 mmol/L sodium dichloroacetate) were mixed, and the mixtures were incubated at 37° C. for 10 min. Forty microliters of the mitochondrial suspensions diluted with a sample buffer were added to a 96-well microplate for activity measurement and blank measurement. Then 180 μL of the reaction mixture (0.056 mmol/L potassium phosphate buffer (pH 7.5), 5.6 mmol/L DL-carnitine, 2.8 mmol/L NAD, 0.22 mmol/L thiamin pyrophosphate, 0.11 mmol/L Coenzyme A, 1.1 mL/L Triton X-100, 1.1 mmol/L magnesium chloride, 1.1 g/L bovine serum albumin, 0.67 mmol/L INT, 7.2 μmol/L phenazine methosulfate, 28 mmol/L sodium oxamate) was added to each well, and then 20 μL of 50 mmol/L sodium pyruvate for activity measurement or water for blank measurement were added. The mixtures were incubated at room temperature under shading. The absorbances at 500-750 nm, which were attributable to reduction of INT, the final electron acceptor, were measured using a microplate reader over time and the changes in the absorbance were calculated. The PDH activity was calculated by subtraction of the change in absorbance of the blank well from that of the activity measurement well. The percentage of the PDHa activity to the PDHt activity was calculated and taken as an index of the PDH activation."}
{"smiles": "C[C@H](O)COc1cc(-c2cnn(C(C)(C)C(N)=O)c2)c2c(c1)[C@@](O)(C(F)(F)F)c1ccccc1-2", "note": "[compound (2), 2-(4-{(9R)-9-hydroxy-2-[(2S)-2-hydroxypropoxy]-9-(trifluoromethyl)-9H-fluoren-4-yl}-1H-pyrazol-1-yl)-2-methylpropanamide]", "values": [{"measurement": "PDHa activity (% PDHt activity)", "setting": "adipose tissue, 5 hr after oral administration", "result": "72 ± 4", "unit": "% PDHt activity"}, {"measurement": "PDHa activity (% PDHt activity)", "setting": "adipose tissue, 20 hr after oral administration", "result": "44 ± 6", "unit": "% PDHt activity"}, {"measurement": "PDHa activity (% PDHt activity)", "setting": "liver, 5 hr after oral administration", "result": "67 ± 11", "unit": "% PDHt activity"}, {"measurement": "PDHa activity (% PDHt activity)", "setting": "liver, 20 hr after oral administration", "result": "41 ± 11", "unit": "% PDHt activity"}]}
